From patent US20020094998A1, “Methods and compositions for treatment of ocular neovascularization and neural injury” (priority 2000, published 2002)

Experiments:
[1] = system: wet age-related macular degeneration patient
Description: A patient presents with “wet” age-related macular degeneration (ARMD) in the foveal region of the right eye, and their condition is found to be suitable for photodynamic therapy (PDT). For one week prior to the date of scheduled treatment, the patient is given a topical dosage of brimonidine twice a day in a standard formulation.
The day of scheduled PDT treatment, the patient is administered 6 mg/M^2 of verteporfin. Fifteen minutes after the start of the infusion, the patient is administered Irradiance of 600 mW/cm^2 and total fluence of 50 Joules/cm^2 from an Argon light laser.
Brimonidine administration is continued every two days throughout the 12 week evaluation period.
Evaluation of neural health is assayed 1 week, 4 weeks, and 12 weeks following treatment by visual inspection of the retina and test of visual acuity.

[2] = system: Brown Norway rats; assay: Electroretinography (a-wave) after verteporfin PDT in rats treated i.p. with agent; format: in vivo, rat; details: for A Wave Amplitude PDT Eye: ERG 3-4 hours after PDT; for A Wave Amplitude PDT Eye / A Wave Amplitude Control Eye: N 4; for A Wave Amplitude % Control: PDT eye vs control eye, * p ≦ 0.05 vs vehicle; for A Wave Amplitude Control Eye: eye not treated with PDT; for loss in retinal function induced by PDT: rats, i.p. 1 hour before PDT, a-wave amplitudes
Description: Brown Norway rats weighing 200-400 grams were treated intraperitoneally (i.p.) with either brimonidine, AGN 199960, or the saline vehicle. One hour later, the rats were unilaterally treated with PDT and evaluated by electroretinography 3-4 hours later. There were 4 rats in each treatment group.
PDT was conducted as follows: Mydriasis was induced in one eye of each rat with a drop of 0.5% tropicamide. Rats were then anesthetized with isoflurane and placed on a platform in front of a slit lamp coupled to a Coherent diode laser for verteporfin PDT (689 nm). Verteporfin was injected intravenously at a dose of 6 mg/m^2. […] Three to four hours later, the treated animals were again dilated and anesthetized, then electroretinograms (ERGs) were evaluated in each eye.
ERGs are collected non-invasively by measuring mass-cell response arising due to retinal activity proceeding from a light stimulus. The first cells stimulated by a flash light stimulation are the photoreceptors at the outer retinal layer. This response is measured as an a-wave. As the signal is transduced to inner retinal neurons, a b-wave is produced. The a-wave reflects activity in the photoreceptors and the b-wave reflects activity in both photoreceptors and bipolar cells.
Before being subjected to the ERG test, the rats were placed in the dark (dark-adapted) for 15 minutes. Two types of ERG apparatus were used to generate the results below. In the initial brimonidine experiment, each eye was evaluated separately. A Grass photostimulator was placed 10 cm from the recording eye and flashed a single white flash lasting 10 microseconds. A gold corneal ring electrode with a reference electrode attached to the lower eyelid detected retinal responses. For the AGN 199960 experiments, a Ganzfeld dome was used to generate a single flash and sensitive bipolar corneal electrodes were placed on both eyes, thus allowing simultaneous ERGs to be done. A cushioning agent on the cornea (methylcellulose) was used in each case, and the responses were amplified and stored in a computer. The results reported are a-wave amplitudes, which appear to be the ERG parameter most affected in clinical PDT. […] has the following structure: [drawing 3]

[3] = system: CNV; details: FIG. 1B
[4] = system: retina; details: cited from earlier work

Compound | visual acuity ([1]; 4 and 12 weeks following treatment) | renewed neovascularization ([1]; 12 weeks following PDT treatment) | optic nerve axon loss ([1]; monitoring period up to 12 weeks) | Fluorescein angiography leakage in the treated tissue ([1]; one week after PDT and throughout the monitoring period) | visual inspection of the retina (whitening, edema) ([1]; topical twice a day one week before PDT, then every two days, 1 to 12 weeks after PDT) | A Wave Amplitude PDT Eye ([2]; 1000 ug/kg i.p. 1 hour prior to PDT, Grass photostimulator) | A Wave Amplitude % Control ([2]; 1000 ug/kg i.p. 1 hour prior to PDT) | A Wave Amplitude Control Eye ([2]; 1000 ug/kg i.p., Grass photostimulator) | post PDT decrease in retinal functionality ([2]; FIG. 1A, compared to a saline control) | loss in retinal function induced by PDT [2] | area of ablation of CNV following PDT [3] | A Wave Amplitude PDT Eye ([2]; 300 ug/kg i.p. 1 hour prior to PDT, Ganzfeld dome) | A Wave Amplitude % Control ([2]; 300 ug/kg i.p. 1 hour prior to PDT) | A Wave Amplitude Control Eye ([2]; 300 ug/kg i.p., Ganzfeld dome) | effect of PDT on vascular outgrowth and associated edema ([4]; about 6 mg/m^2, treatment necessary every few months) | retinal and optic nerve damage from PDT ([4]; high doses (12 and 18 mg/m^2))
Brc1c(NC2=NCCN2)ccc2nccnc12 [Brimonidine] | no discernable loss of vision | No evidence | no evidence | minimal leakage | healthy with no whitening | 90 ± 15 uV | 103 ± 8* % | 91 ± 21 uV | inhibits | inhibited | does not affect |  |  |  |  | 
O=C1c2ccccc2CCC1Cc1c[nH]c(=S)[nH]1 (centres unmarked) [AGN 960] |  |  |  |  |  |  |  |  |  | inhibited |  | 212 ± 16 uV | 101 ± 13* % | 218 ± 29 uV |  | 
verteporfin [vertporfin] |  |  |  |  |  |  |  |  |  |  |  |  |  |  | effective to slow vascular outgrowth and associated edema somewhat | long term or permanent scarring of the retina, chronic absence of photoreceptor cells, and optic nerve atrophy
